From paper PMC4147338, “Host defense peptides for treatment of colorectal carcinoma – a comparative in vitro and in vivo analysis” (Oncotarget, 2014)

Experiments:
[1] = FRET spectroscopy probe dilution assay, membrane intercalation; assay type: binding; conditions: NBD-PE/rhodamine-PE, peptide 0.2-0.8 μM, 20 mM HEPES 150 mM NaCl pH 7.4, 37°C
Experimental: FRET spectroscopy served as a sensitive tool to detect lipid dependence of the membrane interaction of antimicrobial peptides. For this, all peptides were added to liposomes consisting of zwitterionic PC alone, of a mixture of PC and of negatively charged PS, as well as of pure PS (Figure 1). All lipid vesicles were doped with donor and acceptor dyes, peptides were added, and the emission intensities of both dyes were monitored over time. An increase of the fluorescence intensity of the donor (IDonor) and a simultaneous decrease of the fluorescence intensity of the acceptor dye (IAcceptor), i.e. a reduced FRET efficacy, indicated an increase in the overall mean distance between labeled phospholipids, and corresponded to an insertion of peptides into the lipid bilayer. For clarity, the IDonor/IAcceptor ratio is shown (Figure 1).
Figure 1 FRET spectroscopy. (A-C) Binding to and insertion of peptide C7A-D21K into phospholipid membranes (A) C7A-D21K was added at time point 50 s to liposomes (10 μM) consisting of pure PC, (B) a 90:10 molar mixture of PC:PS, and (C) of pure PS, each doubly doped with the fluorescently labeled FRET pair NBD-PE (donor) and rhodamine-PE (acceptor). Intercalation was monitored by measuring donor and acceptor fluorescence emission intensities. For better visualization only the quotient (IDonor/IAcceptor) is shown. Addition of the peptide solvent alone had no effect (dotted grey line). Peptide concentrations used: 0.2 μM (dotted black line, only in C), 0.4 μM (solid grey line, only in C), and 0.8 μM (solid black line). (D-F) Binding to and insertion of peptides at different concentrations into phospholipid membranes. (A) Peptides were added to liposomes consisting of pure PC, (B) a 90:10 molar mixture of PC:PS, and (C) of pure PS, each doubly doped with the fluorescently labeled phospholipid FRET pair NBD-PE (donor) and rhodamine-PE (acceptor). Intercalation was monitored by measuring donor and acceptor fluorescence intensities. The relative increase of the IDonor/IAcceptor ratio 250 s after peptide addition is shown (Increase of IDonor/IAcceptor (%) = (IDonor/IAcceptor (peptide) - IDonor/IAcceptor (control))*100). Peptide concentrations used: 0.2 μM (open bars), 0.4 μM (grey bars), and 0.8 μM (black bars).
Intercalation of peptides into liposome membranes was determined by FRET spectroscopy applied as a probe dilution assay. Liposomes were prepared by dissolving appropriate lipid mixtures (pure PC, a 90:10 molar mixture of PC:PS, as well as pure PS, each doped with 1% of the donor dye NBD-PE and 1% of the acceptor dye rhodamine-PE) in chloroform and drying them under a gentle stream of nitrogen. The resulting lipid film was dispersed in 20 mM HEPES, 150 mM NaCl, pH 7.4, sonicated for 30 min and subjected to 3-4 temperature cycles from 4 to 60°C with an incubation period of 30 min at each step. Lipid dispersions were stored at 4°C overnight before use. For the assay, donor fluorescence (NBD) was excited at 470 nm, and donor (NBD, ID at 531 nm) as well as acceptor (rhodamine, IA at 593 nm) emission intensities were monitored over time. An increase of the ratio of the donor fluorescence intensity to that of the acceptor fluorescence intensity (IDonor/I^Acceptor) was interpreted as a membrane intercalation event. This ratio depends on the Förster efficiency, therefore a rising value means that the mean distance separation of donor and acceptor dyes is raising. The assay was performed at 37°C.

HROC24 xenografts = assay: HROC24 xenograft, repetitive local peptide injection; assay type: in vivo, NMRI Foxn1nu mice; conditions: for Tumor growth inhibition in words / Tumors macroscopically breaking up / ulceration / Tumor size, x-fold increase vs. day 0 (Vt/V0): 1 mg/kg bw local injection every third day, 9 injections, n=5; for Tumor cell apoptosis, M30 CytoDeath staining (cytokeratin 18 cleavage): immunofluorescence of cryopreserved tumor sections; for Tumor size, x-fold increase vs. day 0 (Vt/V0): PBS control: 10.3-fold
Experimental: Figure 7 In vivo growth kinetics and tumor cell apoptosis of HROC24 tumors in NMRI Foxn1mice with or without local treatment (A) Therapy was performed by repetitive local application of HDPs C7A or C7A-D21K (1 mg/kg bw) every third day (a total of 9 injections) (n=5 per group). Tumor-carrying control animals received either equivalent volumes of peptide NK11 or saline (n=5 per group). Tumor volumes are given as x-fold increase vs. day 0 (Vt/V0) (start of treatment) ± SD. *p<0.05 vs. PBS. (B) Representative immunofluorescence staining of apoptotic cells within HROC24 tumors. Cryopreserved tumor sections were stained with anti-M30 CytoDeath antibody, followed by anti-mouse IgG FITC antibody and nuclear DAPI as described in material and methods.
Experiments were performed on female 8–10-week old NMRI Foxn1^nu mice (Charles River, Sulzfeld, Germany) weighting 18-20 g. All animals were fed standard laboratory chow and given free access to water. Trials were performed in accordance with the German legislation on protection of animals and the Guide for the Care and Use of Laboratory Animals (Institute of Laboratory Animal Resources, National Research Council; NIH Guide, vol.25, no.28, 1996). NMRI Foxn1^nu mice were challenged with 5 × 10^6 HROC24 cells. Mice with established subcutaneous (s.c.) tumors received repetitive local injections of peptide C7A or C7A-D21K (1mg/kg bw, dissolved in 50 μl) every third day (a total of 9 injections) (n=5 per group). As control, tumor-carrying mice either received NK11 (1mg/kg bw, dissolved in 50 μl) or saline (50μl volume, n=5 per group). Tumor growth was controlled three times a week at time point of HDP injection and tumor volume was estimated according to the formula: V= width² * length * 0.52.
Tumor carrying mice were sacrificed at day 28 or when they became moribund before the tumor volume reached 2.000 mm³. At the end of each experiment, tumors, blood and spleens were collected from the animals of all groups for further analysis.
To study apoptotic cell death in vivo, 4 μm sections of HDP-treated and control tumors were mounted on poly-L-lysine-coated-slides. Following fixation in ice-cold methanol and blocking with 2% BSA (1h), cells were incubated with mouse anti-M30 CytoDeath antibody according to the manufacturer's instructions (Roche, Mannheim, Germany). A FITC-labeled anti-mouse IgG antibody was used as secondary antibody (Dako Envision Link, Hamburg, Germany). Cell nuclei were stained with DAPI and slides were embedded in mounting medium (Dako). Apoptotic cells were detected using a fluorescence microscope (Olympus, Münster, Germany).

Sequence | Membrane intercalation (increase of IDonor/IAcceptor) ([1]; PC:PS 90:10 liposomes 10 μM) | Membrane intercalation (increase of IDonor/IAcceptor) ([1]; pure PS liposomes 10 μM) | Tumor growth inhibition in words (HROC24 xenografts) | Tumors macroscopically breaking up / ulceration (HROC24 xenografts) | Tumor cell apoptosis, M30 CytoDeath staining (cytokeratin 18 cleavage) (HROC24 xenografts) | Tumor size, x-fold increase vs. day 0 (Vt/V0) (HROC24 xenografts) [fold] | Membrane intercalation (increase of IDonor/IAcceptor) ([1]; pure PC liposomes 10 μM)
KILRGVAKKIMRTFLRRISKDILTGKK [Peptide C7A, NK-2 derivative, Cys7 replaced with Ala] | slightly impaired | pronounced | most effectiveness | 4/5 | most strongly induced |  | 
KILRGVAKKIMRTFLRRISKKILTGKK [Peptide C7A-D21K, C7A with Asp21 substituted by Lys] | slightly impaired | pronounced | strong growth retardation | no ulceration was observed | most strongly induced | 3.4 | 
KISKRILTGKK [NK11, non-toxic control peptide based on NK-2, reference compound] | negligible | visible | induced tumor growth retardation as well |  | elevated cytokeratin 18 cleavage | 4 | negligible
